For test [1], the system named is transgenic potato plants (CGS+). Put plainly: Resistance to ethionine in CGS+ transgenic potato plants (growth on maintenance medium with ethionine). The format is in vivo, Russet Burbank potato. As to the method: (§1) Inaba, et al. used 100 μM ethionine, the toxic analogue of methionine to select Arabidopsis thaliana mutants that overaccumulated methionine. We tested the effects of ethionine on the growth of transgenic potato plants by incorporating ethionine into the maintenance medium. Several concentrations of ethionine, 10, 25, 50, 100, 200, 300 μM were tested initially using wild-type potato plants.

The next test concerns wild-type potato plants. Put plainly: Effect of ethionine in the maintenance medium on growth of wild-type potato plants. The format is in vivo, Russet Burbank potato. As to the method: as §1
The mark [2] stands for this setting: ethionine 10 μM in maintenance medium.

With `CCSCC[C@H](N)C(=O)O` [ethionine], the “growth of transgenic potato plants” value was “continued to grow” in test [1] (setting [2]); “only CGS4 and CGS8 had limited growth of roots” in test [1] (ethionine 25 and 50 μM in maintenance medium). Further, the “root initiation of transgenic potato plants” value in test [1] (setting [2]) is listed as “all transgenic plants initiated roots in three days”. For the same molecule, the “growth of wild-type potato plants” value with wild-type potato plants (setting [2]) was “growth of wild-type plants were inhibited”; in the test on wild-type potato plants (ethionine 50 μM and higher (10, 25, 50, 100, 200, 300 μM tested) in maintenance medium), “total inhibition of growth”.

These data come from patent US20050039231A1, “Method for selecting transformed plant cells using ethionine and cystathionine gamma synthase as the selection agent and marker gene” (Rutgers, The State University, priority 1999, published 2005).
